# Data published in patent US9512106B2, “Smoothened modulators and methods of use thereof” (Duke University, priority 2012, dated 2016).
# Read-outs that look alike come from different tables or passages of the source.
# Key:
# Smo-633 = target: T1, Smo-633 (Homo sapiens, UniProt Q99835); assay: Smo/βarr2-GFP translocation high-throughput imaging assay (antagonist mode); assay type: cell-based; conditions: for inhibition of intracellular βarr2-GFP aggregation: U2OS cells with Smo-633 and βarr2-GFP, 5 μM
# T1 construct: expressed in transfected cells
# T1 sequence (Q99835 with tags, fused parts or gaps limits assumed): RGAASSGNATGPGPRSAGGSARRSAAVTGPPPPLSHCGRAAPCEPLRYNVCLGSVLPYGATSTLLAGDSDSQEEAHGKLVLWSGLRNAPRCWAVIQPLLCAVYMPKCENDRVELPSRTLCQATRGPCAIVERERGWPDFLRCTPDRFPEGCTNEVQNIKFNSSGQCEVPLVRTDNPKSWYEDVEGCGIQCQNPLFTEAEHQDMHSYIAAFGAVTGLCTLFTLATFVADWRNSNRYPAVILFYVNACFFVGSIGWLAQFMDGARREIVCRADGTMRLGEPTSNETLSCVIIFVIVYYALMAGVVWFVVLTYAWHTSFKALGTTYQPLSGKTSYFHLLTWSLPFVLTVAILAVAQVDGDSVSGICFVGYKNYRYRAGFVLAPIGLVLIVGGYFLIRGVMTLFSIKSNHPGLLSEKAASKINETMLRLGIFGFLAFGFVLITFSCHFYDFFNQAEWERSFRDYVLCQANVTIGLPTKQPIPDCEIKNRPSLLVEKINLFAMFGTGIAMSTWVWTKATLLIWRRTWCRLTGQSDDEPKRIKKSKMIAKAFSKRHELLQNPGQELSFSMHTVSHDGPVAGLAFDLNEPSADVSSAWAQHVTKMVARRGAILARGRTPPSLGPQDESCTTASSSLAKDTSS
# Excerpt: U2OS cells stably expressing a chimera Smo-633 receptor and βarr2-GFP were used in HTS screening.
# To identify novel Smo inhibitors, we screened chemical libraries using our confocal imaging, cell-based platform assay as the primary high-throughput screening assay. […] Thus, small molecule inhibitors of Smo are identified by the loss of the punctate pattern.
# To control for receptor specificity and to rule-out non-specific mechanisms, hits were cross-screened in the same assay format using the vasopressin2 receptor (V2R), a different seven-transmembrane receptor. In this control assay, cells transfected with V2R and βarr2-GFP are stimulated with the agonist arginine vasopressin. […] This control assay helps ensure the mechanism of inhibition is Smo receptor specific and allows molecules with non-specific mechanisms of inhibition to be ruled-out.
# [1] = tested on: cerebellar granular cell precursor (GCP) cells; assay: GCP cell proliferation ([3H]-thymidine incorporation); assay type: cell-based, mouse; conditions: read-out: IC50, inhibition of GCP proliferation
# Procedure: FIG. 4. Compound A8 inhibits Gli-reporter activity and GCP proliferation. […] Cells were then exposed to [3H]-thymidine for 16 h and [3H]-thymidine incorporation was measured. Data were fit using Graphpad Prism (mean±SEM, n=3).
# Primary neuronal granular cell precursor (GCP) cells were obtained from the cerebellum of 7-day postnatal C57BL/6 mice and labeled with [3H]-thymidine. Proliferation assays were performed as previously described28.
# Smo-D473H = target: T2, Smo-D473H (Homo sapiens, UniProt Q99835, D473H); assay: [3H]-cyclopamine competitive binding, Smo-D473H mutant; conditions: for competition for binding / displacement of [3H]-cyclopamine from Smo-D473H: U2OS cells overexpressing Smo-D473H
# T2 construct: expressed in transfected cells; host or cells: U2OS
# T2 sequence (Q99835 28-787 D473H): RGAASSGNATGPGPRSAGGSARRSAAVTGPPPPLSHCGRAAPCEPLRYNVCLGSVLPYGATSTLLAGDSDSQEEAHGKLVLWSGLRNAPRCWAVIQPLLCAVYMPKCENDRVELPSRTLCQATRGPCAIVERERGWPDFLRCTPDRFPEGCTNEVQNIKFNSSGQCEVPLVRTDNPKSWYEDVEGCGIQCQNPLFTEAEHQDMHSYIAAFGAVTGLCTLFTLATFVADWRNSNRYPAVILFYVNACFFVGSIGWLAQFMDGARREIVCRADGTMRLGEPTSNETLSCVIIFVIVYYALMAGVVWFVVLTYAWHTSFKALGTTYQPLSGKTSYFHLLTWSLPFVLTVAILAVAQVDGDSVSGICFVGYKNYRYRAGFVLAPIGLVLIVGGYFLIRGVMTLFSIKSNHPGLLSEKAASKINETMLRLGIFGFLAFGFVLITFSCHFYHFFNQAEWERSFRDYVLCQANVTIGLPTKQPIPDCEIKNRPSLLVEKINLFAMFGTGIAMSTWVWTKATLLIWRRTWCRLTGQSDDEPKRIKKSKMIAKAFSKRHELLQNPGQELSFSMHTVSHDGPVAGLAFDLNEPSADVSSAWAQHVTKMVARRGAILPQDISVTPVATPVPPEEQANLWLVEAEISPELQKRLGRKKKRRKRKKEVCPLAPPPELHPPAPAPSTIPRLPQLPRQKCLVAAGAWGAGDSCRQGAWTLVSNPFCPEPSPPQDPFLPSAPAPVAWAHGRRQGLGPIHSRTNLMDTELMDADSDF
# Procedure: (§1) FIG. 3. […] The displacement data were analyzed by fitting to a one-site competition curve using Graphpad Prism. Data were acquired in triplicates from three independent experiments and are presented as the mean±SEM.
# (§2) For competitive binding assays, U2OS cells overexpressing wild-type Smo or Smo-D473H mutant receptors were grown in 24-well plates and fixed with 4% (v/v) formaldehyde/PBS for 20 min at room temperature (RT).
# wild-type Smo = target: T3, wild-type Smo (Homo sapiens, UniProt Q99835); assay: [3H]-cyclopamine competitive binding, wild-type Smo; conditions: 25 nM [3H]-cyclopamine; for displacement of [3H]-cyclopamine from wild-type Smo: U2OS cells overexpressing wild-type Smo; for Ki: fixed U2OS cells overexpressing wild-type Smo, mean±SEM, read-out: Ki, displacement of [3H]-cyclopamine from Smo
# T3 construct: expressed in transfected cells; host or cells: U2OS
# T3 sequence (Q99835 28-787): as the sequence (Q99835 28-787 D473H) above, with H446D counted along it
# Procedure: as §1, §2
# [2] = target: T4, vasopressin2 receptor (V2R) (Homo sapiens, UniProt P30518); conditions: cells transfected with V2R and βarr2-GFP, arginine vasopressin stimulated; cited from earlier work
# T4 construct: expressed in transfected cells
# T4 sequence (P30518 whole entry, species assumed): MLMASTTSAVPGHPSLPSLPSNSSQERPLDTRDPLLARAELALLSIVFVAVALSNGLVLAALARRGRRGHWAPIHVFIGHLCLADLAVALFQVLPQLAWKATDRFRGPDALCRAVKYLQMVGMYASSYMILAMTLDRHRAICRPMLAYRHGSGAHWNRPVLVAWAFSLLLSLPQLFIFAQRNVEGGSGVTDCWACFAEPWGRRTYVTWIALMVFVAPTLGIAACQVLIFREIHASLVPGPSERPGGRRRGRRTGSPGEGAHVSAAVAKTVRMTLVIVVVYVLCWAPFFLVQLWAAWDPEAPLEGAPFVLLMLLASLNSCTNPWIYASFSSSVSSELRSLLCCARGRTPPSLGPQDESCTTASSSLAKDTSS
# [3] = tested on: Shh-induced Gli reporter activity; assay: Gli-luciferase reporter assay in Shh-LIGHT2 cells; assay type: cell-based
# Procedure: FIG. 4. […] Cells were then exposed to [3H]-thymidine for 16 h and [3H]-thymidine incorporation was measured. Data were fit using Graphpad Prism (mean±SEM, n=3).
# The Gli-luciferase assay was conducted in Shh-LIGHT2 cells, a clonal NIH3T3 cell line stably incorporating Gli-dependent firefly luciferase and constitutive Renilla luciferase reporters35. Cells were treated with purified Sonic Hedgehog protein (50 ng/mL) together with the corresponding compounds for 2 days. The reporter activity was determined by using the Dual-Luciferase Reporter Assay System (Promega).
# [4] = Storage of the active impurity in solution, activity retained; assay type: physicochemical; conditions: room temperature, DMSO or methanolic solution, 1 week
# Excerpt: Subsequent characterization of this impurity by high-resolution mass spectrometry (HRMS) and by extensive NMR analysis allowed assignment of structure to the impurity as shown for Compound A8 (FIG. 2A). Confirmation of the structural assignment was achieved by synthesis of authentic material using the route described in FIG. 2B. Synthesized material matched the isolated material from the library sample by extensive NMR analysis, HRMS, TLC and HPLC.
# Hh-induced hair growth = assay: Hair regrowth after depilation, topical treatment; assay type: in vivo, mouse; conditions: C57BL/6 female mice, 0.5 mM, 30 μl topically daily for two weeks
# Procedure: Eight-week-old C57BL/6 female mice were shaved on the dorsal surface and depilated with Nair® (Carter-Wallace, New York, N.Y.). Briefly, the bottom half of the shaved area was treated with Nair for 2 min, and the depilated area rinsed with water to remove residual Nair. Compound A8 was dissolved in a vehicle of 95% acetone/5% DMSO at a concentration of 0.5 mM, and 30 μl of A8 solution or the vehicle were applied topically to the depilated area of mice daily for two weeks. Mice were anesthetized briefly using 3% isoflurane anesthetic inhalant during all procedures. Five mice were included in each treatment group. All animals were treated in accordance with protocols approved by Institutional Animal Care and Use Committee at Duke University.
# Hedgehog signaling plays a key role in regulating hair follicle growth40. To determine the efficacy of the novel Smo inhibitor A8 in suppressing Hh signaling in vivo, we used a model of hedgehog inhibition that examines inhibition of hair-growth41-43. Eight-week old Female C57BL mice in telogen phase of the hair cycle were used in these experiments44. Chemical depilation with Nair® induces anagen phase and regrowth of hair by activating the Hh signaling pathway. In our experiments, most of the hair on the back of vehicle treated mice grew back 2 weeks after removal with Nair (data not shown).
# [5] = mouse GCP cells, 48 hours with Shh, then [3H]-thymidine 16 h, mean±SEM, n=3
Compound,inhibition of intracellular βarr2-GFP aggregation (Smo-633),competition for binding / displacement of [3H]-cyclopamine from Smo-D473H (Smo-D473H),displacement of [3H]-cyclopamine from wild-type Smo (wild-type Smo),"IC50 [1, 5]",Ki (wild-type Smo),also measured
CC1=C2C[C@H]3[C@@H](CC=C4C[C@@H](O)CC[C@@]43C)[C@@H]2CC[C@]12O[C@@H]1C[C@H](C)CN[C@H]1[C@H]2C [cyclopamine],inhibits the aggregation of βarr2-GFP,completely displace,completely displaced,,,IC50 ([1]; Mus musculus): 414 ± 73 nM; inhibition of aggregation of V2R and βarr2-GFP [2]: not inhibited; inhibition of the Gli-reporter activity ([3]; 1 μM concentration): strong inhibition
CS(=O)(=O)c1ccc(C(=O)Nc2ccc(Cl)c(-c3ccccn3)c2)c(Cl)c1 [GDC-0449],,largely ineffective,completely displaced,16.4 ± 2.5 nM,,displacement of [3H]-cyclopamine from Smo-D473H at high concentration (Smo-D473H; 10 μM compound): only partially displaced
O=C(NC1CCN(Cc2ccc(N3CCC(NC(=O)c4cccc(-c5cccnc5)c4)CC3)nc2)CC1)c1cccc(-c2cccnc2)c1 [Compound A8],activity of the synthesized material was confirmed,completely displace,completely displaced,16.6 ± 2.3 nM,37.9 ± 3.7 nM,"activity after storage in solution [4]: retained activity; Hh-induced hair growth (Hh-induced hair growth): largely inhibited; Ki (Smo-D473H; fixed U2OS cells overexpressing Smo-D473H, 25 nM [3H]-cyclopamine, mean±SEM, read-out: Ki, displacement of [3H]-cyclopamine from Smo-D473H receptors): 478 ± 123 nM; IC50 ([3]; Shh-LIGHT2 cells, Sonic Hedgehog 50 ng/mL, mean±SEM, n=3, read-out: IC50, inhibition of Shh-induced Gli reporter activity): 2.6 ± 0.4 nM"
CCN(C)Cc1ccc(N2CCC(NC(=O)c3cccc(-c4cccnc4)c3)CC2)nc1 [Tripos 3910],,,,,,"Smo antagonist activity of resynthesized sample compared to previous test samples (Smo-633; material synthesized at Duke, assay not specified): substantially reduced Smo antagonist activity"
Cc1c(C(=O)Nc2ccc(N3C[C@@H](C)O[C@@H](C)C3)nc2)cccc1-c1ccc(OC(F)(F)F)cc1 [LDE-225],,largely ineffective,completely displaced,,6 ± 1.4 nM,
